Laboratory results: patent publication US20240050406A1, “COMPOSITION COMPRISING OXIRACETAM FOR PREVENTING OR TREATING MUSCULAR DISEASE” (KSB TUGEN INC., priority 2021, published 2024)

Assays:
[1] = test system: animal model in which muscular atrophy is induced by dexamethasone; experiment: Comparison with dementia drugs in dexamethasone muscular atrophy model (Experimental Example 5); type: in vivo, ICR mice
Source text: For an experimental group in the present invention, oxiracetam having a structure of Formula 1 was purchased from Tokyo Chemical Industry (Japan; Product No. 00398, CAS RN:62613-82-5, purity: 96%) and used. Mirtazapine and olanzapine were purchased from Tokyo Chemical Industry (Japan, Product Nos. M2151, 00393, purity: 96%) and used.
As experimental animals, 7-week-old male ICR mice were purchased and used. Until the day of the experiment, general feed (EEGJ30060: Cargill Agri Purina, Seongnam, Korea) and water were sufficiently supplied to the experimental animals, and the animals were acclimated for 1 week under an environment of a temperature of 23±2° C., a humidity of 55±10%, and a light-dark cycle of 12 hours-12 hours and used in the experiment.
After the acclimation period for the experimental animals, to create a muscular atrophy model, the mice were randomly divided into groups of 7 animals, such as a control (vehicle, n=7), a dexamethasone-treated group (n=7), and a drug-administered group (n=7). The groups except for the control were intraperitoneally injected dexamethasone at a dose of 10 mg/kg from day 7 to day 21 for 14 days. In the case of the drug-administered group, 7 days before the intraperitoneal administration of dexamethasone, the drug was orally administered using a Zonde needle at a dose of 30 or 10 mg/kg/day once a day for 21 days. During the same period, the control was administered no drug, and 100 μL of normal saline was orally administered at a time. To the dexamethasone-treated group (dexamethasone excipient, CMC), instead of the drug, 100 μL of a 0.5% carboxymethylcellulose (CMC) solution was administered. This is to set the effect on the excipient as a blank.
To measure grip strength, a grip strength test was performed. The maximum force presented when the forelimbs of an animal model of each group could no longer hold the rod by pulling the tail horizontally while holding the tail of the animal model and holding the rod of a device with both front paws was considered to be grip strength (N). Grip strength adaptation training was performed at least three times before drug administration. After measurement before drug administration (day 0) and on day 20 after drug administration began, grip strength variation (%) after drug administration began (day 20) with respect to that before drug administration (day 0) was calculated.
The lean body mass of the gastrocnemius muscle (GS) and the lean body mass of the tibialis anterior (TA) for each group were measured every 7 days. Specifically, animal models of each group were anesthetized using 3% isoflurane, fixed to a photographing bed and then photographed. During photographing, the respiratory rates and body temperatures of the animal models were measured with an animal monitoring system (SA Instruments, USA).
The whole body of the animal model was photographed through dual energy X-ray absorptiometry (DEXA) using iNSiGHT VET DXA (Osteosys, KR), and the lean body mass of each of the gastrocnemius muscle (GS) and the tibialis anterior (TA) was measured and calculated from the two-dimensional images of the gastrocnemius muscle (GS) and the tibialis anterior (TA) by a program using the region of interest (ROI).
(§1) Statistical processing was performed using GraphPad Prism (GraphPad Software Inc., San Diego, CA, USA). The results of each repeated experiment were expressed as mean±standard error of mean, and analyzed using the analysis of variance (Tukey's test), and statistical significance was acknowledged when the P-value was 0.05 or less.

[2] = test system: C2C12 myotubes; experiment: Myotube diameter in TNF-α muscular atrophy cell model (Experimental Example 7); type: cell-based, mouse; settings: TNF-α 10 ng/ml 48 h with oxiracetam 10 μM or 0 μM; relative to non-treated control
Procedure: A mouse-derived C2C12 cell line was provided from the American Type Culture Collection (ATCC, CRL-1772; Manassas, VA, USA) and cultured at 37° C. in 5% CO2. In the proliferation phase of the cells before differentiation, high concentration glucose Dulbecco's modified Eagle's medium (DMEM) containing 1% penicillin/streptomycin and 10% fetal bovine serum (FBS) medium were used, and in the differentiation induction, the FBS medium was replaced with a 2% horse serum (HS)-containing medium. The C2C12 myoblasts were seeded into a 96 well culture plate and a 6 well culture plate at 2×10^5/well and 5×10^3/well, respectively, and cultured at 37° C. in a CO2 incubator. When the confluency reached approximately 90%, the medium was replaced with 2% horse serum (HS)-containing DMEM to induce differentiation of myoblasts. After 5 days, the C2C12 myotubes that had differentiated were treated with 10 ng/ml TNF-α, which is an inflammatory factor, for 48 hours to cause myotube atrophy, thereby creating a muscular atrophy cell model, TNF-α-treated group (TNF-α). During the TNF-α treatment, 10 μM oxiracetam was treated to create an oxiracetam-treated group (Oxiracetam 10 μM), cells that were not treated during the same period were prepared as a control. Two days after TNF-α and oxiracetam treatment, each of the TNF-α-treated group (TNF-α), the oxiracetam-treated group (Oxiracetam 10 μM) and the control was treated with an ATP detection reagent at room temperature, and then luminescence was measured using a mitochondrial ToxGlo™ assay kit (Promega). In addition, the TNF-α-treated group (TNF-α), the oxiracetam-treated group (Oxiracetam 10 μM) and the control were photographed using an optical microscope and the diameter of a myotube cell in each group were measured and compared. Statistical processing was performed using GraphPad Prism (GraphPad Software Inc., San Diego, CA, USA).

[3] = test system: C2C12 myotubes; experiment: Myotube diameter in doxorubicin-induced cachexia cell model (Experimental Example 8); type: cell-based, mouse; settings: doxorubicin 500 nM 48 h with or without oxiracetam 0.01, 0.1, 1, 10 and 30 μM; relative to control
Procedure: A mouse-derived C2C12 cell line was provided from the American Type Culture Collection (ATCC, CRL-1772; Manassas, VA, USA) and cultured at 37° C. in 5% CO2. In the proliferation phase of the cells before differentiation, high concentration glucose Dulbecco's modified Eagle's medium (DMEM) containing 1% penicillin/streptomycin and 10% fetal bovine serum (FBS) medium were used, and in the differentiation induction, the FBS medium was replaced with a 2% horse serum (HS)-containing medium. The C2C12 myoblasts were seeded into a 96 well culture plate and a 6 well culture plate at 2×10^5/well and 5×10^3/well, respectively, and cultured at 37° C. in a CO2 incubator. […]
Two days after anticancer agent and oxiracetam treatment, the anticancer agent-treated group (Doxorubicin), the oxiracetam-treated groups (Oxiracetam 0.01 μM, 0.1 μM, 1 μM, 10 μM and 30 μM), and the control (control) were photographed using an optical microscope at a room temperature, and the diameter (Diameter, %) of a myotube in each group was measured and compared.
as §1

[4] = oxiracetam 30, mirtazapine 10, olanzapine 10 mg/kg/day oral 21 days + dexamethasone, DEXA every 7 days

With `CN1CCN2c3ncccc3Cc3ccccc3C2C1` (centres unmarked) [mirtazapine] the “change in grip strength” value ([1]; oxiracetam 30, mirtazapine 10, olanzapine 10 mg/kg/day oral 21 days + dexamethasone 10 mg/kg i.p. day 7-21) was “reduced”, the “lean body mass of the gastrocnemius muscle (GS)” value [1, 4] was “not recovered but rather reduced” and the “lean body mass of the tibialis anterior (TA)” value [1, 4] was “not recovered but rather reduced”.
For TNF-α, the “diameter of a myotube relative to control” value [2] was “greatly reduced to half the level of the control”.
`COc1cccc2c1C(=O)c1c(O)c3c(c(O)c1C2=O)C[C@@](O)(C(=O)CO)C[C@@H]3O[C@H]1C[C@H](N)[C@H](O)[C@H](C)O1` [Doxorubicin, doxorubicin] was tested, and the diameter of myotube [3] was “significantly decreased”.
